Measured values reported in PubChem BioAssay (NCI).
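Interpolation was linear, between the two tested concentrations surrounding the appropriate level; five concentrations were tested over 48 hours in 96-well plates. GI50: concentration for 50% inhibition of growth. At the TGI there is no net growth.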

Experiments:
Experiment in all cases: growth of human tumour cells (NCI), 48 h
MDA-MB-231 breast = test system: MDA-MB-231 breast
SR leukemia = test system: SR leukemia
T-47D breast = test system: T-47D breast
NCI-H460 lung = test system: NCI-H460 lung
NCI/ADR-RES ovarian = test system: NCI/ADR-RES ovarian
CCRF-CEM leukemia = test system: CCRF-CEM leukemia
HOP-62 NSCLC = test system: HOP-62 NSCLC
M14 melanoma = test system: M14 melanoma
NCI-H226 lung = test system: NCI-H226 lung
OVCAR-5 ovarian = test system: OVCAR-5 ovarian

| SMILES | TGI (MDA-MB-231 breast) [µM] | TGI (SR leukemia) [µM] | TGI (T-47D breast) [µM] | TGI (NCI-H460 lung) [µM] | TGI (NCI/ADR-RES ovarian) [µM] | TGI (CCRF-CEM leukemia) [µM] | TGI (HOP-62 NSCLC) [µM] | TGI (M14 melanoma) [µM] | TGI (NCI-H226 lung) [µM] | TGI (OVCAR-5 ovarian) [µM] | GI50 (MDA-MB-231 breast) [µM] | GI50 (SR leukemia) [µM] | GI50 (T-47D breast) [µM] | GI50 (NCI-H460 lung) [µM] | GI50 (NCI/ADR-RES ovarian) [µM] | GI50 (CCRF-CEM leukemia) [µM] | GI50 (HOP-62 NSCLC) [µM] | GI50 (M14 melanoma) [µM] | GI50 (NCI-H226 lung) [µM] | GI50 (OVCAR-5 ovarian) [µM] |
| --- | --- | --- | --- | --- | --- | --- | --- | --- | --- | --- | --- | --- | --- | --- | --- | --- | --- | --- | --- | --- |
| CC1CC2CCCC(O)=C2C(=O)O1 (centres undefined) | > 100 | > 100 | > 100 | > 100 | > 100 | > 100 | > 100 | > 100 | > 100 | > 100 | – | – | – | – | – | – | – | – | – | – |
| COc1ccc2nc3ccccc3c(NCc3ccc(F)cc3)c2c1 | 7.26 | 5.75 | 13.6 | 6.18 | 8.24 | 23.4 | 10.9 | 8.18 | 9.28 | 8.21 | 1.85 | 1.79 | 3.11 | 1.78 | 1.82 | 2.06 | 2.34 | 2.23 | 1.81 | 2.25 |
| CCn1c(O)c(/C=N/NC(=O)C(C)c2ccc(CC(C)C)cc2)sc1=S (centres undefined) | 7.59 | > 100 | > 100 | 10.9 | > 38.8 | > 100 | > 50.7 | 14.5 | > 21.4 | > 44.7 | 0.515 | 0.198 | 0.56 | 0.353 | 0.276 | 0.23 | 0.549 | 0.285 | 0.797 | 0.619 |
| C=CCC1(c2ccc(OC)cc2)C=CC(=O)CC1 (centres undefined) | > 100 | > 100 | > 100 | > 100 | > 100 | > 100 | > 100 | > 100 | > 100 | > 100 | – | – | – | – | – | – | – | – | – | – |
| NC(N)=NCCCC(=O)O | > 100 | > 100 | > 100 | > 100 | > 100 | > 100 | > 100 | > 100 | > 100 | > 100 | – | – | – | – | – | – | – | – | – | – |
| Cc1nc(N)sc1N=Nc1ccccc1Br | 67 | > 100 | 57.2 | > 67.4 | 72.5 | > 100 | 78.4 | 67.6 | 68.2 | > 90.5 | – | – | – | – | – | – | – | – | – | – |
| COC(=O)c1c2c(c(C)[n+]([O-])c1C)C(=O)C=C(NCc1ccc(F)cc1)C2=O | 4.46 | 9.92 | 1.88 | 2 | 5.38 | 6 | 3.76 | 1.9 | 4.13 | 2.88 | 0.354 | 0.639 | 0.288 | 0.493 | 0.432 | 0.5 | 1.38 | 0.513 | 1.77 | 1.39 |
| O=C(/C=C/c1ccc[nH]1)c1ccc(-n2ccc(C(F)(F)F)n2)cc1 | > 100 | > 100 | > 100 | > 100 | > 100 | > 100 | > 100 | > 100 | > 100 | > 100 | > 100 | 9.15 | > 40.9 | 84.2 | > 100 | 1.06 | > 100 | > 100 | – | > 100 |
| CNCCOC(=O)/C=C1\CC[C@H]2[C@@H]([C@@H](O)C(=O)[C@@H]3[C@]2(C)CC[C@H](O)[C@]3(C)C(=O)OC)[C@H]1C | 5.91 | 0.626 | 1.67 | 0.429 | 0.444 | 1.09 | 0.595 | 2.46 | 1.99 | 2.68 | 1.77 | 0.244 | 0.33 | 0.201 | 0.22 | 0.291 | 0.241 | 1.08 | 0.566 | 1.18 |
| O=c1c(F)cn(Cc2ccc(C34CC5CC(CC(C5)C3)C4)c(O)c2)c(=O)n1Cc1ccc(C23CC4CC(CC(C4)C2)C3)c(O)c1 | 24.8 | 26.5 | 51.6 | 37.2 | 28.9 | > 100 | 33.1 | 45.3 | 26.1 | 28.1 | 12.3 | 7.17 | 20.8 | 9.76 | 14.3 | 9.46 | 17.5 | 18.4 | 12.9 | 13.5 |
| N#Cc1nn(-c2cc(=O)[nH]c3ccc(Cl)cc23)c(N)c1C#N | > 100 | > 100 | > 100 | > 100 | > 100 | > 100 | > 100 | > 100 | > 100 | > 100 | 89.8 | > 100 | 38.9 | > 100 | > 100 | > 100 | > 100 | > 100 | > 100 | > 100 |
| COc1cc(Cl)cc(-c2nn(-c3cccc(NC(=O)c4ccc(N5CCOCC5)c(C(F)(F)F)c4)c3)cc2-c2ccncc2)c1 | 32.4 | > 100 | > 100 | > 100 | > 100 | > 100 | > 100 | > 100 | > 100 | > 100 | 2.83 | 3.06 | 10.4 | 4.8 | 6.17 | 3.88 | 62.5 | 7.93 | 93.4 | 32.5 |
| CC(=O)Nc1ccc(-c2csc(Nc3cccc(-c4csc(C)n4)c3)n2)cc1 | 5.07 | > 50 | > 43.2 | > 50 | 6.84 | > 50 | 15 | 8.81 | 16.8 | > 36.8 | 1.28 | 0.787 | 2.65 | 1 | 0.642 | > 50 | 3.02 | 0.743 | 4.92 | 10 |
| CCOC(=O)Nc1cc2c(c(N)n1)N=C(c1ccccc1)CO2 | 6.43 | 10.1 | 73.3 | 5.26 | 21.5 | 4.42 | 24.3 | 93 | 41.4 | 48.5 | 0.691 | 0.035 | 20.4 | 0.0659 | 0.061 | 0.0653 | 0.45 | 0.166 | 4.16 | 1.15 |
| C[C@@H]1C[C@@H]([C@@H](CC2CC(=O)NC(=O)C2)OC(=O)CC(=O)c2ccccc2)C(=O)[C@@H](C)C1 | 90.5 | > 100 | > 29.4 | > 43.9 | > 100 | > 85.5 | > 100 | > 49.1 | > 100 | > 100 | 2.94 | 2.01 | 0.554 | 0.461 | 0.689 | 0.466 | 0.99 | 0.588 | 0.686 | 0.662 |
